# Reference: PubChem BioAssay (NCI)
#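 Protocol summary: plate cells (96-well), add compound at 5 concentrations, incubate 48 h, interpolate endpoints linearly. GI50 = concentration required for 50% inhibition of growth. At the TGI there is no net growth.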
# Key:
# Assay in all cases: NCI anticancer screen, dose series, 48 h
# M14 melanoma = test system: M14 melanoma
# LOX IMVI melanoma = test system: LOX IMVI melanoma
# KM12 colon = test system: KM12 colon
# OVCAR-4 ovarian = test system: OVCAR-4 ovarian
# UO-31 renal = test system: UO-31 renal
# UACC-62 melanoma = test system: UACC-62 melanoma
# OVCAR-5 ovarian = test system: OVCAR-5 ovarian
# NCI-H460 lung = test system: NCI-H460 lung
# ACHN renal = test system: ACHN renal
# SF-539 CNS = test system: SF-539 CNS
# SN12C renal = test system: SN12C renal
# MDA-MB-435 = test system: MDA-MB-435
# COLO 205 colon = test system: COLO 205 colon
# SK-OV-3 ovarian = test system: SK-OV-3 ovarian
# HCT-15 colon = test system: HCT-15 colon
# IGROV1 ovarian = test system: IGROV1 ovarian
# RXF 393 renal = test system: RXF 393 renal
# RPMI-8226 leukemia = test system: RPMI-8226 leukemia
# SK-MEL-28 melanoma = test system: SK-MEL-28 melanoma
# HS 578T breast = test system: HS 578T breast
# UACC-257 melanoma = test system: UACC-257 melanoma
# SK-MEL-5 melanoma = test system: SK-MEL-5 melanoma
# SK-MEL-2 melanoma = test system: SK-MEL-2 melanoma
# HOP-62 NSCLC = test system: HOP-62 NSCLC
# EKVX NSCLC = test system: EKVX NSCLC
# HT29 colon = test system: HT29 colon
# NCI-H522 lung = test system: NCI-H522 lung
# U251 CNS = test system: U251 CNS
# BT-549 breast = test system: BT-549 breast
# A498 renal = test system: A498 renal
# PC-3 prostate = test system: PC-3 prostate
# SF-268 CNS = test system: SF-268 CNS
# SF-295 CNS = test system: SF-295 CNS
# NCI/ADR-RES ovarian = test system: NCI/ADR-RES ovarian
# TK-10 renal = test system: TK-10 renal
# OVCAR-3 ovarian = test system: OVCAR-3 ovarian
# NCI-H23 lung = test system: NCI-H23 lung
# NCI-H226 lung = test system: NCI-H226 lung
# SW-620 colon = test system: SW-620 colon
# MALME-3M melanoma = test system: MALME-3M melanoma
# SNB-75 CNS = test system: SNB-75 CNS
# MCF7 breast = test system: MCF7 breast
# MDA-MB-231 breast = test system: MDA-MB-231 breast
# OVCAR-8 ovarian = test system: OVCAR-8 ovarian
# CAKI-1 renal = test system: CAKI-1 renal
# MOLT-4 leukemia = test system: MOLT-4 leukemia
# A549 NSCLC = test system: A549 NSCLC
# SR leukemia = test system: SR leukemia
# HL-60(TB) leukemia = test system: HL-60(TB) leukemia
# HCT-116 colon = test system: HCT-116 colon
# DU-145 prostate = test system: DU-145 prostate
# SNB-19 CNS = test system: SNB-19 CNS
# CCRF-CEM leukemia = test system: CCRF-CEM leukemia
# HOP-92 NSCLC = test system: HOP-92 NSCLC
# HCC-2998 colon = test system: HCC-2998 colon
# 786-0 renal = test system: 786-0 renal
compound,measurement,setting,value
C#CC[C@@H]1C[C@]2(C)[C@H]3CC[C@@H]4[C@H]5C(C(=C)C)CC[C@]5(C(=O)NCCCCN)CC[C@@]4(C)[C@]3(C)CC[C@H]2C(C)(C)[C@H]1OC(C)=O (some centres undefined),GI50,M14 melanoma,1770 nM
same,TGI,M14 melanoma,3460 nM
same,GI50,LOX IMVI melanoma,1560 nM
same,TGI,LOX IMVI melanoma,3000 nM
same,GI50,KM12 colon,1810 nM
same,TGI,KM12 colon,3360 nM
same,GI50,OVCAR-4 ovarian,1760 nM
same,TGI,OVCAR-4 ovarian,3330 nM
same,GI50,UO-31 renal,1560 nM
same,TGI,UO-31 renal,2950 nM
same,GI50,UACC-62 melanoma,1820 nM
same,TGI,UACC-62 melanoma,3260 nM
same,GI50,OVCAR-5 ovarian,1670 nM
same,TGI,OVCAR-5 ovarian,3060 nM
same,GI50,NCI-H460 lung,1910 nM
same,TGI,NCI-H460 lung,3710 nM
same,GI50,ACHN renal,1650 nM
same,TGI,ACHN renal,3010 nM
same,GI50,SF-539 CNS,1660 nM
same,TGI,SF-539 CNS,3110 nM
same,GI50,SN12C renal,1730 nM
same,TGI,SN12C renal,3340 nM
same,GI50,MDA-MB-435,1730 nM
same,TGI,MDA-MB-435,3190 nM
same,GI50,COLO 205 colon,1680 nM
same,TGI,COLO 205 colon,3300 nM
same,GI50,SK-OV-3 ovarian,1940 nM
same,TGI,SK-OV-3 ovarian,3540 nM
same,GI50,HCT-15 colon,1730 nM
same,TGI,HCT-15 colon,3450 nM
same,GI50,IGROV1 ovarian,1730 nM
same,TGI,IGROV1 ovarian,3350 nM
same,GI50,RXF 393 renal,1550 nM
same,TGI,RXF 393 renal,3140 nM
same,GI50,RPMI-8226 leukemia,2100 nM
same,TGI,RPMI-8226 leukemia,5060 nM
same,GI50,SK-MEL-28 melanoma,1760 nM
same,TGI,SK-MEL-28 melanoma,3250 nM
same,GI50,HS 578T breast,1820 nM
same,TGI,HS 578T breast,3810 nM
same,GI50,UACC-257 melanoma,1890 nM
same,TGI,UACC-257 melanoma,3770 nM
same,GI50,SK-MEL-5 melanoma,1800 nM
same,TGI,SK-MEL-5 melanoma,3270 nM
same,GI50,SK-MEL-2 melanoma,1710 nM
same,TGI,SK-MEL-2 melanoma,3400 nM
same,GI50,HOP-62 NSCLC,1910 nM
same,TGI,HOP-62 NSCLC,4070 nM
same,GI50,EKVX NSCLC,1840 nM
same,TGI,EKVX NSCLC,3780 nM
same,GI50,HT29 colon,1900 nM
same,TGI,HT29 colon,4040 nM
same,GI50,NCI-H522 lung,1800 nM
same,TGI,NCI-H522 lung,3670 nM
same,GI50,U251 CNS,1810 nM
same,TGI,U251 CNS,3510 nM
same,GI50,BT-549 breast,1760 nM
same,TGI,BT-549 breast,3340 nM
same,GI50,A498 renal,1780 nM
same,TGI,A498 renal,3190 nM
same,GI50,PC-3 prostate,1640 nM
same,TGI,PC-3 prostate,3170 nM
same,GI50,SF-268 CNS,1850 nM
same,TGI,SF-268 CNS,3930 nM
same,GI50,SF-295 CNS,1840 nM
same,TGI,SF-295 CNS,3410 nM
same,GI50,NCI/ADR-RES ovarian,1820 nM
same,TGI,NCI/ADR-RES ovarian,3980 nM
same,GI50,TK-10 renal,1860 nM
same,TGI,TK-10 renal,3480 nM
same,GI50,OVCAR-3 ovarian,1780 nM
same,TGI,OVCAR-3 ovarian,3330 nM
same,GI50,NCI-H23 lung,1850 nM
same,TGI,NCI-H23 lung,3530 nM
same,GI50,NCI-H226 lung,2030 nM
same,TGI,NCI-H226 lung,4840 nM
same,GI50,SW-620 colon,1830 nM
same,TGI,SW-620 colon,3740 nM
same,GI50,MALME-3M melanoma,1680 nM
same,TGI,MALME-3M melanoma,3330 nM
same,GI50,SNB-75 CNS,1410 nM
same,TGI,SNB-75 CNS,2780 nM
same,GI50,MCF7 breast,1670 nM
same,TGI,MCF7 breast,3860 nM
same,GI50,MDA-MB-231 breast,1790 nM
same,TGI,MDA-MB-231 breast,3450 nM
same,GI50,OVCAR-8 ovarian,2210 nM
same,TGI,OVCAR-8 ovarian,5340 nM
same,GI50,CAKI-1 renal,1600 nM
same,TGI,CAKI-1 renal,3070 nM
Cc1cc2cn3c4ccc(O)cc4nc(N)c3c2cc1C,GI50,M14 melanoma,< 19.2 nM
same,TGI,M14 melanoma,1180 nM
same,GI50,LOX IMVI melanoma,< 10 nM
same,TGI,LOX IMVI melanoma,1580 nM
same,GI50,KM12 colon,< 10 nM
same,TGI,KM12 colon,2450 nM
same,GI50,OVCAR-4 ovarian,1490 nM
same,TGI,OVCAR-4 ovarian,14400 nM
same,GI50,UO-31 renal,227 nM
same,TGI,UO-31 renal,3260 nM
same,GI50,UACC-62 melanoma,< 10 nM
same,TGI,UACC-62 melanoma,1310 nM
same,GI50,MOLT-4 leukemia,82.8 nM
same,TGI,MOLT-4 leukemia,2480 nM
same,GI50,OVCAR-5 ovarian,1110 nM
same,TGI,OVCAR-5 ovarian,11500 nM
same,GI50,ACHN renal,< 30.7 nM
same,TGI,ACHN renal,1880 nM
same,GI50,SF-539 CNS,221 nM
same,TGI,SF-539 CNS,1050 nM
same,GI50,SN12C renal,172 nM
same,TGI,SN12C renal,1890 nM
same,GI50,SK-OV-3 ovarian,233 nM
same,TGI,SK-OV-3 ovarian,5000 nM
same,GI50,RPMI-8226 leukemia,71.3 nM
same,TGI,RPMI-8226 leukemia,2010 nM
same,GI50,SK-MEL-28 melanoma,96.1 nM
same,TGI,SK-MEL-28 melanoma,2100 nM
same,GI50,HS 578T breast,170 nM
same,TGI,HS 578T breast,11000 nM
same,GI50,UACC-257 melanoma,1110 nM
same,TGI,UACC-257 melanoma,3080 nM
same,GI50,SK-MEL-5 melanoma,< 10 nM
same,TGI,SK-MEL-5 melanoma,137 nM
same,GI50,SK-MEL-2 melanoma,< 10 nM
same,TGI,SK-MEL-2 melanoma,1340 nM
same,GI50,EKVX NSCLC,794 nM
same,TGI,EKVX NSCLC,20300 nM
same,GI50,A549 NSCLC,132 nM
same,TGI,A549 NSCLC,1460 nM
same,GI50,SR leukemia,< 28.4 nM
same,TGI,SR leukemia,1740 nM
same,GI50,HL-60(TB) leukemia,33.1 nM
same,TGI,HL-60(TB) leukemia,1210 nM
same,GI50,HCT-116 colon,< 10 nM
same,TGI,HCT-116 colon,1320 nM
same,GI50,NCI-H522 lung,17.5 nM
same,TGI,NCI-H522 lung,293 nM
same,GI50,U251 CNS,< 10 nM
same,TGI,U251 CNS,1390 nM
same,GI50,BT-549 breast,2220 nM
same,TGI,BT-549 breast,20400 nM
same,GI50,A498 renal,289 nM
same,TGI,A498 renal,22700 nM
same,GI50,DU-145 prostate,53.5 nM
same,TGI,DU-145 prostate,1630 nM
same,GI50,PC-3 prostate,127 nM
same,TGI,PC-3 prostate,5850 nM
same,GI50,SNB-19 CNS,146 nM
same,TGI,SNB-19 CNS,18600 nM
same,GI50,SF-268 CNS,197 nM
same,TGI,SF-268 CNS,5420 nM
same,GI50,SF-295 CNS,150 nM
same,TGI,SF-295 CNS,1280 nM
same,GI50,NCI/ADR-RES ovarian,< 20.4 nM
same,TGI,NCI/ADR-RES ovarian,498 nM
same,GI50,TK-10 renal,818 nM
same,TGI,TK-10 renal,2760 nM
same,GI50,OVCAR-3 ovarian,< 17.6 nM
same,TGI,OVCAR-3 ovarian,1700 nM
same,GI50,NCI-H23 lung,266 nM
same,TGI,NCI-H23 lung,5090 nM
same,GI50,NCI-H226 lung,502 nM
same,TGI,NCI-H226 lung,19200 nM
same,GI50,CCRF-CEM leukemia,16.3 nM
same,TGI,CCRF-CEM leukemia,2130 nM
same,GI50,HOP-92 NSCLC,4890 nM
same,TGI,HOP-92 NSCLC,22300 nM
same,GI50,MALME-3M melanoma,2180 nM
same,TGI,MALME-3M melanoma,26700 nM
same,GI50,HCC-2998 colon,539 nM
same,TGI,HCC-2998 colon,3780 nM
same,GI50,SNB-75 CNS,211 nM
same,TGI,SNB-75 CNS,9750 nM
same,GI50,786-0 renal,54.1 nM
same,TGI,786-0 renal,1700 nM
same,GI50,MCF7 breast,429 nM
same,TGI,MCF7 breast,1760 nM
same,GI50,MDA-MB-231 breast,350 nM
same,TGI,MDA-MB-231 breast,1690 nM
same,GI50,OVCAR-8 ovarian,180 nM
same,TGI,OVCAR-8 ovarian,1490 nM
same,GI50,CAKI-1 renal,176 nM
same,TGI,CAKI-1 renal,5130 nM
